# Measurements from the supplement of paper PMC10307832.
# Key:
# Experiment in all cases: relative viability (nuclei count vs DMSO), 5 days (fraction); higher = more cells survive
# Ponatinib + Luminespib = compound: Cc1ccc(C(=O)Nc2ccc(CN3CCN(C)CC3)c(C(F)(F)F)c2)cc1C#Cc1cnc2cccnn12 [Ponatinib] + CCNC(=O)c1noc(-c2cc(C(C)C)c(O)cc2O)c1-c1ccc(CN2CCOCC2)cc1 [Luminespib] (partner 0.01 µM)
# Outline: (§1)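 Relative viability was taken as the ratio of nuclei in treated wells to nuclei in vehicle wells. Lung cancer cell lines in 1536-well plates received compounds by pin tool one day after seeding, either one drug alone or a fixed anchor-drug dose plus five library-drug doses (not always all listed) in √10 steps. Nuclei were counted on 4× images after 5 days of treatment, and values are medians of duplicate plates.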
# Pazopanib + Linsitinib = compound: Cc1ccc(Nc2nccc(N(C)c3ccc4c(C)n(C)nc4c3)n2)cc1S(N)(=O)=O [Pazopanib] + C[C@]1(O)C[C@@H](c2nc(-c3ccc4ccc(-c5ccccc5)nc4c3)c3c(N)nccn32)C1 [Linsitinib] (partner 1 µM)
# Outline: as §1
# Ponatinib + Olaparib = compound: Cc1ccc(C(=O)Nc2ccc(CN3CCN(C)CC3)c(C(F)(F)F)c2)cc1C#Cc1cnc2cccnn12 [Ponatinib] + O=C(c1cc(Cc2n[nH]c(=O)c3ccccc23)ccc1F)N1CCN(C(=O)C2CC2)CC1 [Olaparib] (partner 8 µM)
# Outline: as §1
# Pazopanib + Decitabine = compound: Cc1ccc(Nc2nccc(N(C)c3ccc4c(C)n(C)nc4c3)n2)cc1S(N)(=O)=O [Pazopanib] + Nc1ncn([C@H]2C[C@H](O)[C@@H](CO)O2)c(=O)n1 [Decitabine] (partner 2 µM)
# Outline: as §1
Cell Line,relative viability (Ponatinib + Luminespib; first compound 0.002 µM),relative viability (Ponatinib + Luminespib; first compound 0.006325 µM),relative viability (Ponatinib + Luminespib; first compound 0.06325 µM),relative viability (Ponatinib + Luminespib; first compound 0.2 µM),relative viability (Pazopanib + Linsitinib; first compound 0.01 µM),relative viability (Pazopanib + Linsitinib; first compound 0.03162 µM),relative viability (Pazopanib + Linsitinib; first compound 0.1 µM),relative viability (Pazopanib + Linsitinib; first compound 0.3162 µM),relative viability (Pazopanib + Linsitinib; first compound 1 µM),relative viability (Ponatinib + Olaparib; first compound 0.002 µM),relative viability (Ponatinib + Olaparib; first compound 0.006325 µM),relative viability (Ponatinib + Olaparib; first compound 0.06325 µM),relative viability (Ponatinib + Olaparib; first compound 0.2 µM),relative viability (Pazopanib + Decitabine; first compound 0.01 µM),relative viability (Pazopanib + Decitabine; first compound 0.03162 µM),relative viability (Pazopanib + Decitabine; first compound 0.1 µM),relative viability (Pazopanib + Decitabine; first compound 0.3162 µM),relative viability (Pazopanib + Decitabine; first compound 1 µM)
HCC-827,0.476,0.914,0.446,0.589,1.01,0.935,0.938,0.933,0.849,0.719,0.644,0.709,0.687,0.333,0.322,0.293,0.355,0.348
HOP-62,0.87,0.946,0.835,0.781,0.9,0.973,–,1,0.859,0.313,0.172,0.211,0.355,0.208,0.238,0.228,0.288,0.196
IA-LM,–,–,–,–,0.428,0.553,0.527,0.613,0.622,0.705,0.835,0.785,0.646,–,–,–,–,–
LC-2-ad,0.968,0.93,1.17,0.855,0.813,0.778,0.868,0.8,0.842,0.764,0.762,0.781,0.713,0.88,0.644,0.915,0.85,0.776
LCLC-97TM1,0.677,0.704,0.647,0.439,–,0.229,0.154,0.2,0.211,0.48,0.452,0.385,0.334,–,0.229,0.247,0.223,0.237
LCLC-103H,0.928,0.974,0.908,0.733,0.846,1.22,1.06,1.04,1.14,0.754,0.743,0.838,0.694,0.653,0.708,0.735,0.682,0.679
LK-2,–,0.185,0.181,0.158,0.486,0.564,0.475,0.517,0.524,0.584,0.759,0.661,0.435,0.228,0.318,0.324,0.243,0.277
LOU-NH91,0.317,0.318,0.393,0.404,0.89,0.98,0.984,1.04,0.935,0.898,0.919,1.03,0.879,0.808,0.78,0.828,0.828,0.769
LU99A,0.288,0.25,0.274,0.242,0.377,0.522,0.589,0.565,0.52,0.259,0.246,0.255,0.255,–,0.916,0.935,0.953,0.961
LXF-289,0.598,0.661,0.774,0.641,0.973,0.957,0.921,0.93,0.98,0.97,1.05,1.06,1.06,0.395,0.351,0.39,0.373,0.381
